Measured values from ChEMBL document CHEMBL2086308, “Cytotoxic 2-phenyacrylnitriles, the importance of the cyanide moiety and discovery of potent broad spectrum cytotoxic agents” (2012).

Key:
Assay type in all cases: functional
HT-29 [1] = assay: Growth inhibition of human HT-29 cells assessed as reduction in cell growth at 25uM after 72 hrs by MTT assay; details: HT-29, 72 h, read-out: GI
A2780 [2] = assay: Growth inhibition of human A2780 cells assessed as reduction in cell growth at 25uM after 72 hrs by MTT assay; details: A2780, 72 h, read-out: GI
DU-145 [3] = assay: Growth inhibition of human DU145 cells assessed as reduction in cell growth at 25uM after 72 hrs by MTT assay; details: DU-145, 72 h, read-out: GI
[4] = Growth inhibition of human BE(2)-C cells assessed as reduction in cell growth at 25uM after 72 hrs by MTT assay; details: read-out: GI
[5] = Growth inhibition of mouse SMA cells assessed as reduction in cell growth at 25uM after 72 hrs by MTT assay; details: read-out: GI
MCF7 [6] = assay: Growth inhibition of human MCF7 cells assessed as reduction in cell growth at 25uM after 72 hrs by MTT assay; details: MCF7, 72 h, read-out: GI
NCI-H460 [7] = assay: Growth inhibition of human H460 cells assessed as reduction in cell growth at 25uM after 72 hrs by MTT assay; details: NCI-H460, 72 h, read-out: GI
[8] = Growth inhibition of human SJ-G2 cells assessed as reduction in cell growth at 25uM after 72 hrs by MTT assay; details: SJ-G2, 72 h, read-out: GI
MIA PaCa-2 [9] = assay: Growth inhibition of human MIAPaCa2 cells assessed as reduction in cell growth at 25uM after 72 hrs by MTT assay; details: MIA PaCa-2, 72 h, read-out: GI
A-431 [10] = assay: Growth inhibition of human A431 cells assessed as reduction in cell growth at 25uM after 72 hrs by MTT assay; details: A-431, 72 h, read-out: GI
SW480 [11] = assay: Growth inhibition of human SW480 cells assessed as reduction in cell growth at 25uM after 72 hrs by MTT assay; details: SW480, 72 h, read-out: GI
A-431 [12] = assay: Growth inhibition of human A431 cells assessed as reduction in cell growth after 72 hrs by MTT assay; details: A-431, 72 h
[13] = Growth inhibition of human SJ-G2 cells assessed as reduction in cell growth after 72 hrs by MTT assay; details: SJ-G2, 72 h
MIA PaCa-2 [14] = assay: Growth inhibition of human MIAPaCa2 cells assessed as reduction in cell growth after 72 hrs by MTT assay; details: MIA PaCa-2, 72 h
MCF7 [15] = assay: Growth inhibition of human MCF7 cells assessed as reduction in cell growth after 72 hrs by MTT assay; details: MCF7, 72 h
A2780 [16] = assay: Growth inhibition of human A2780 cells assessed as reduction in cell growth after 72 hrs by MTT assay; details: A2780, 72 h
DU-145 [17] = assay: Growth inhibition of human DU145 cells assessed as reduction in cell growth after 72 hrs by MTT assay; details: DU-145, 72 h
[18] = Growth inhibition of human BE(2)-C cells assessed as reduction in cell growth after 72 hrs by MTT assay
SW480 [19] = assay: Growth inhibition of human SW480 cells assessed as reduction in cell growth after 72 hrs by MTT assay; details: SW480, 72 h
NCI-H460 [20] = assay: Growth inhibition of human H460 cells assessed as reduction in cell growth after 72 hrs by MTT assay; details: NCI-H460, 72 h
HT-29 [21] = assay: Growth inhibition of human HT-29 cells assessed as reduction in cell growth after 72 hrs by MTT assay; details: HT-29, 72 h
[22] = Growth inhibition of mouse SMA cells assessed as reduction in cell growth after 72 hrs by MTT assay

Compound | GI50 (A-431 [12]) [µM] | GI50 (MIA PaCa-2 [14]) [µM] | GI50 (MCF7 [15]) [µM] | GI50 (A2780 [16]) [µM] | GI50 (DU-145 [17]) [µM] | GI50 (SW480 [19]) [µM] | GI50 (NCI-H460 [20]) [µM] | GI50 (HT-29 [21]) [µM] | inhibition of growth at 25 µM (HT-29 [1]) [%] | inhibition of growth at 25 µM (A2780 [2]) [%] | inhibition of growth at 25 µM (DU-145 [3]) [%] | inhibition of growth at 25 µM [4] [%] | inhibition of growth at 25 µM [5] [%] | inhibition of growth at 25 µM (MCF7 [6]) [%] | inhibition of growth at 25 µM (NCI-H460 [7]) [%] | inhibition of growth at 25 µM [8] [%] | inhibition of growth at 25 µM (MIA PaCa-2 [9]) [%] | GI50 [13] [µM] | GI50 [18] [µM] | GI50 [22] [µM] | also measured
N#C/C(=C\c1ccc(CO)o1)c1ccc(Cl)c(Cl)c1 | – | – | – | – | – | – | – | – | 41 | 25 | < 10 | < 10 | 16 | 27 | 30 | 27 | < 10 | – | – | – | inhibition of growth at 25 µM (A-431 [10]): < 10%; inhibition of growth at 25 µM (SW480 [11]): < 10%
N#C/C(=C\c1c[nH]c2ccc(Br)cc12)c1ccc(Cl)c(Cl)c1 | 7.3 | 9 | 6.9 | 6.8 | 13 | 8.2 | 7.5 | 7 | – | – | – | – | – | – | – | – | – | 10 | 7 | 9.2 | –
O=C(O)/C(=C\c1ccc([N+](=O)[O-])cc1)c1ccc(Cl)c(Cl)c1 | – | – | – | – | – | – | – | – | 28 | < 10 | < 10 | < 10 | < 10 | 11 | < 10 | < 10 | < 10 | – | – | – | inhibition of growth at 25 µM (A-431 [10]): < 10%; inhibition of growth at 25 µM (SW480 [11]): < 10%
N#C/C(=C\c1ccc(-c2ccccc2)o1)c1ccc(Cl)c(Cl)c1 | – | – | – | – | – | – | – | – | 15 | 13 | < 10 | < 10 | < 10 | < 10 | 11 | < 10 | < 10 | – | – | – | inhibition of growth at 25 µM (A-431 [10]): < 10%; inhibition of growth at 25 µM (SW480 [11]): < 10%
N#C/C(=C\c1c[nH]c2ccc(C#N)cc12)c1ccc(Cl)c(Cl)c1 | – | – | – | – | – | – | – | – | 57 | 47 | 18 | 50 | 44 | 38 | 33 | 44 | 43 | – | – | – | inhibition of growth at 25 µM (A-431 [10]): 34%; inhibition of growth at 25 µM (SW480 [11]): 43%
N#C/C(=C\c1c[nH]c2c1ccc1ccccc12)c1ccc(Cl)c(Cl)c1 | 3 | 6.1 | 4 | 3.7 | 8.7 | 7.5 | 5 | 4.2 | – | – | – | – | – | – | – | – | – | 6.8 | 3.8 | 5.9 | –
COc1ccc(/C=C(\C(=O)O)c2ccc(Cl)c(Cl)c2)cc1 | – | – | – | – | – | – | – | – | 11 | < 10 | < 10 | < 10 | < 10 | < 10 | < 10 | < 10 | < 10 | – | – | – | inhibition of growth at 25 µM (A-431 [10]): < 10%; inhibition of growth at 25 µM (SW480 [11]): < 10%
Cc1ccc(/C=C(\C#N)c2ccc(Cl)c(Cl)c2)o1 | – | – | – | – | – | – | – | – | 58 | 43 | < 10 | 50 | 33 | 68 | 40 | 32 | 36 | – | – | – | inhibition of growth at 25 µM (A-431 [10]): 46%; inhibition of growth at 25 µM (SW480 [11]): 47%
N#C/C(=C\c1cc2ccccc2o1)c1ccc(Cl)c(Cl)c1 | – | – | – | – | – | – | – | – | 43 | 49 | 14 | 20 | 55 | 40 | 36 | 46 | 47 | – | – | – | inhibition of growth at 25 µM (A-431 [10]): 54%; inhibition of growth at 25 µM (SW480 [11]): 43%

Now from value to compound, other results behind:

GI50 (A-431 [12]) [µM] | GI50 (MIA PaCa-2 [14]) [µM] | GI50 (MCF7 [15]) [µM] | GI50 (A2780 [16]) [µM] | GI50 (DU-145 [17]) [µM] | GI50 (SW480 [19]) [µM] | GI50 (NCI-H460 [20]) [µM] | GI50 (HT-29 [21]) [µM] | Compound | inhibition of growth at 25 µM (HT-29 [1]) [%] | inhibition of growth at 25 µM (A2780 [2]) [%] | inhibition of growth at 25 µM (DU-145 [3]) [%] | inhibition of growth at 25 µM [4] [%] | inhibition of growth at 25 µM [5] [%] | inhibition of growth at 25 µM (MCF7 [6]) [%] | inhibition of growth at 25 µM (NCI-H460 [7]) [%] | inhibition of growth at 25 µM [8] [%] | inhibition of growth at 25 µM (MIA PaCa-2 [9]) [%] | GI50 [13] [µM] | GI50 [18] [µM] | GI50 [22] [µM] | also measured
7.1 | 27 | 0.127 | 12 | 18 | 8.4 | 69 | 3.1 | N#C/C(=C\c1ccc([N+](=O)[O-])cc1)c1ccc(Cl)c(Cl)c1 | – | – | – | – | – | – | – | – | – | 14 | 8.9 | – | –
3 | 3.7 | 3.7 | 3.2 | 7.4 | 4.7 | 3 | 2.8 | Cc1ccc2[nH]cc(/C=C(\C#N)c3ccc(Cl)c(Cl)c3)c2c1 | – | – | – | – | – | – | – | – | – | 5.3 | 3.4 | 4.1 | –
39 | 46 | 7 | 38 | 42 | 45 | 52 | 36 | N#C/C(=C\c1ccco1)c1ccc(Cl)c(Cl)c1 | – | – | – | – | – | – | – | – | – | 50 | 38 | 36 | –
0.37 | 0.5 | 0.23 | 0.41 | 1.04 | 0.67 | 0.39 | 0.36 | N#C/C(=C\c1ccc2[nH]ccc2c1)c1ccc(Cl)c(Cl)c1 | – | – | – | – | – | – | – | – | – | 0.83 | 0.33 | 0.74 | –
10 | 11 | 6.5 | 9.5 | 18 | 5.6 | 10 | 9.3 | N#C/C(=C\c1ccc(F)cc1)c1ccc(Cl)c(Cl)c1 | – | – | – | – | – | – | – | – | – | 16 | 13 | – | –
0.6 | 0.7 | 0.6 | 0.7 | 1.4 | 1.4 | 0.7 | 0.52 | COc1ccc(/C=C(\C#N)c2ccc(Cl)c(Cl)c2)cc1 | – | – | – | – | – | – | – | – | – | 1.5 | 2.7 | – | –
53 | 35 | 31 | 41 | 45 | 49 | 36 | 35 | N#C/C(=C\c1ccc(C(F)(F)F)cc1)c1ccc(Cl)c(Cl)c1 | – | – | – | – | – | – | – | – | – | 41 | 43 | 45 | –
2.1 | 2.4 | 2.8 | 2.2 | 5.6 | 3.8 | 2.2 | 1.9 | Cc1[nH]c2ccccc2c1/C=C(\C#N)c1ccc(Cl)c(Cl)c1 | – | – | – | – | – | – | – | – | – | 4 | 2 | 2.9 | –
0.8 | 1.6 | 1.3 | 0.9 | 3.1 | 2.1 | 1 | 0.85 | N#C/C(=C\c1c[nH]c2ccccc12)c1ccc(Cl)c(Cl)c1 | – | – | – | – | – | – | – | – | – | 1.7 | 1 | 1.3 | –
7.7 | 11 | 2.3 | 7.4 | 12 | 8.8 | 8.7 | 7.1 | N#C/C(=C\c1c[nH]c2ccc(Cl)cc12)c1ccc(Cl)c(Cl)c1 | – | – | – | – | – | – | – | – | – | 9.7 | 8.6 | 6.7 | –
